From patent publication US6881418B2, “Liquid deodorant killing microorganism and method of microorganism-killing deodorization” (K.I Chemical Industry Co., Ltd., priority 2001, dated 2005)

Assays:
[1] = system: Escherichia genus microbes; assay: Test of fast-acting microbicidal efficacy (viable cell count against contact time); assay type: cell-based; conditions: pH 8
Description: Escherichia genus microbes, which were subjected to cell washing, were diluted with phosphate/citrate buffer solution (pH 8) to a concentration of approximately 10^6 CFU/ml, and 1 L each of the prepared solution was poured into glass beakers. Example 1 or 8, and the powdered substance of Compound A1 were each added thereto so as to bring to a prescribed concentration (indicated based on active ingredient), respectively, and the mixtures were stirred for 90 minutes. A portion of each mixture was taken at 5, 10, 30, and 90 minutes and was diluted with sterilized water. Then, the diluted mixture was inoculated onto a nutrient plate agar medium and cultured in an incubator at 30° C. for 3 days. Then, viable cells therein were counted. The results are shown in Tables 6 and 7 in the unit of CFU/ml. Tables 6 and 7 indicate the results obtained by conducting the tests over two separate occasions under the above conditions.

[2] = Test of sustainability of deodorant effect against active sludge (gas detector tubes); conditions: gas phase over 40% sludge suspension, ND = equal to or lower than detection limit
Description: Active sludge (dehydrated cake, water content 70%) obtained from a sewage treatment plant was used for tests on the deodorant effect. The obtained active sludge was suspended with distilled water to form a 40% suspension. Example 9, Comparative Example 2, or powdered Compound A2 was then added to the suspension in a prescribed amount (indicated based on active ingredient) and stirred. 200 g of each suspension containing Example 9, Comparative Example 2, or powdered Compound A2 was transferred to a 1-liter Erlenmeyer flask, and the flask was sealed with a rubber stopper provided with 2 glass pipes each having a rubber tube and a pinchcock. […] The measurement of each gas component was conducted by inserting a gas detector tube into one of the rubber tubes with both pinchcocks open. Used herein were a gas detector 3L (GASTEC CORPORATION) for ammonia, a gas detector 3L (GASTEC CORPORATION) for hydrogen sulfide, and a gas detector 71 (GASTEC CORPORATION) for methyl mercaptan.

[3] = 10 ppm active ingredient, 1 hour later
[4] = 10 ppm active ingredient, 2 hours later
[5] = 20 ppm active ingredient, 1 hour later
[6] = 20 ppm active ingredient, 2 hours later
[7] = 40 ppm active ingredient, 1 hour later
[8] = 40 ppm active ingredient, 2 hours later
[9] = 80 ppm active ingredient, 2 hours later

**Q.** Which viable cells ([1]; 0.25 ppm active ingredient, contact time 5 min, Table 6) does the source give for `CC1(C)C(=O)N(Br)C(=O)N1Br` [Compound A1, 1,3-dibromo-5,5-dimethylhydantoin] here?
**A.** Its viable cells is 3.0 × 10^6 CFU/ml.

**Q.** And the viable cells ([1]; 0.25 ppm active ingredient, contact time 5 min, Table 7)?
**A.** The viable cells was 5.6 × 10^6 CFU/ml.

**Q.** And the viable cells ([1]; 0.25 ppm active ingredient, contact time 10 min, Table 6)?
**A.** The viable cells was 3.1 × 10^6 CFU/ml.

**Q.** And the viable cells ([1]; 0.25 ppm active ingredient, contact time 10 min, Table 7)?
**A.** The viable cells was 5.1 × 10^6 CFU/ml.

**Q.** And the viable cells ([1]; 0.25 ppm active ingredient, contact time 30 min, Table 6)?
**A.** The viable cells was 4.5 × 10^5 CFU/ml.

**Q.** What about the viable cells ([1]; 0.25 ppm active ingredient, contact time 30 min, Table 7) of the same molecule?
**A.** Its viable cells is 3.7 × 10^5 CFU/ml.

**Q.** And the viable cells ([1]; 0.25 ppm active ingredient, contact time 90 min, Table 6)?
**A.** Its viable cells is 3.7 × 10^5 CFU/ml.

**Q.** What about the viable cells ([1]; 0.25 ppm active ingredient, contact time 90 min, Table 7) of the same molecule?
**A.** The viable cells was 2.7 × 10^5 CFU/ml.

**Q.** And the viable cells ([1]; 0.5 ppm active ingredient, contact time 5 min, Table 6)?
**A.** Its viable cells is 3.0 × 10^6 CFU/ml.

**Q.** What about the viable cells ([1]; 0.5 ppm active ingredient, contact time 5 min, Table 7) of the same molecule?
**A.** Its viable cells is 5.0 × 10^6 CFU/ml.

**Q.** And the viable cells ([1]; 0.5 ppm active ingredient, contact time 10 min, Table 6)?
**A.** The viable cells was 7.7 × 10^5 CFU/ml.

**Q.** What about the viable cells ([1]; 0.5 ppm active ingredient, contact time 10 min, Table 7) of the same molecule?
**A.** The viable cells was 6.7 × 10^5 CFU/ml.

**Q.** And the viable cells ([1]; 0.5 ppm active ingredient, contact time 30 min, Table 6)?
**A.** Its viable cells is 8.0 × 10^4 CFU/ml.

**Q.** What about the viable cells ([1]; 0.5 ppm active ingredient, contact time 30 min, Table 7) of the same molecule?
**A.** The viable cells was 8.0 × 10^4 CFU/ml.

**Q.** What about the viable cells ([1]; 0.5 ppm active ingredient, contact time 90 min, Table 6) of the same molecule?
**A.** The viable cells was <10^2 CFU/ml.

**Q.** And the viable cells ([1]; 0.5 ppm active ingredient, contact time 90 min, Table 7)?
**A.** Its viable cells is <10^2 CFU/ml.

**Q.** What about the viable cells ([1]; 1.0 ppm active ingredient, contact time 5 min, Table 6) of the same molecule?
**A.** Its viable cells is 2.9 × 10^6 CFU/ml.

**Q.** What about the viable cells ([1]; 1.0 ppm active ingredient, contact time 5 min, Table 7) of the same molecule?
**A.** The viable cells was 4.8 × 10^6 CFU/ml.

**Q.** What about the viable cells ([1]; 1.0 ppm active ingredient, contact time 10 min, Table 6) of the same molecule?
**A.** Its viable cells is 2.7 × 10^5 CFU/ml.

**Q.** And the viable cells ([1]; 1.0 ppm active ingredient, contact time 10 min, Table 7)?
**A.** The viable cells was 2.9 × 10^5 CFU/ml.

**Q.** And the viable cells ([1]; 1.0 ppm active ingredient, contact time 30 min, Table 6)?
**A.** The viable cells was 4.0 × 10^3 CFU/ml.

**Q.** And the viable cells ([1]; 1.0 ppm active ingredient, contact time 30 min, Table 7)?
**A.** Its viable cells is 8.8 × 10^3 CFU/ml.

**Q.** What about the viable cells ([1]; 1.0 ppm active ingredient, contact time 90 min, Table 6) of the same molecule?
**A.** The viable cells was <10^2 CFU/ml.

**Q.** What about the viable cells ([1]; 1.0 ppm active ingredient, contact time 90 min, Table 7) of the same molecule?
**A.** The viable cells was <10^2 CFU/ml.

**Q.** What about the viable cells ([1]; 1.5 ppm active ingredient, contact time 5 min, Table 6) of the same molecule?
**A.** Its viable cells is 3.3 × 10^6 CFU/ml.

**Q.** And the viable cells ([1]; 1.5 ppm active ingredient, contact time 5 min, Table 7)?
**A.** The viable cells was 4.3 × 10^6 CFU/ml.

**Q.** What about the viable cells ([1]; 1.5 ppm active ingredient, contact time 10 min, Table 6) of the same molecule?
**A.** The viable cells was 5.0 × 10^4 CFU/ml.

**Q.** And the viable cells ([1]; 1.5 ppm active ingredient, contact time 10 min, Table 7)?
**A.** The viable cells was 3.0 × 10^4 CFU/ml.

**Q.** What about the viable cells ([1]; 1.5 ppm active ingredient, contact time 30 min, Table 6) of the same molecule?
**A.** Its viable cells is 2.0 × 10^2 CFU/ml.

**Q.** What about the viable cells ([1]; 1.5 ppm active ingredient, contact time 30 min, Table 7) of the same molecule?
**A.** The viable cells was <10^2 CFU/ml.

**Q.** And the viable cells ([1]; 1.5 ppm active ingredient, contact time 90 min, Table 6)?
**A.** Its viable cells is <10^2 CFU/ml.

**Q.** And the viable cells ([1]; 1.5 ppm active ingredient, contact time 90 min, Table 7)?
**A.** The viable cells was <10^2 CFU/ml.

**Q.** What about the viable cells ([1]; 2.0 ppm active ingredient, contact time 5 min, Table 6) of the same molecule?
**A.** The viable cells was 1.0 × 10^5 CFU/ml.

**Q.** What about the viable cells ([1]; 2.0 ppm active ingredient, contact time 5 min, Table 7) of the same molecule?
**A.** Its viable cells is 3.2 × 10^5 CFU/ml.

**Q.** And the viable cells ([1]; 2.0 ppm active ingredient, contact time 10 min, Table 6)?
**A.** Its viable cells is 2.0 × 10^4 CFU/ml.

**Q.** What about the viable cells ([1]; 2.0 ppm active ingredient, contact time 10 min, Table 7) of the same molecule?
**A.** Its viable cells is 1.2 × 10^4 CFU/ml.

**Q.** What about the viable cells ([1]; 2.0 ppm active ingredient, contact time 30 min, Table 6) of the same molecule?
**A.** Its viable cells is <10^2 CFU/ml.

**Q.** What about the viable cells ([1]; 2.0 ppm active ingredient, contact time 30 min, Table 7) of the same molecule?
**A.** The viable cells was <10^2 CFU/ml.

**Q.** What about the viable cells ([1]; 2.0 ppm active ingredient, contact time 90 min, Table 6) of the same molecule?
**A.** Its viable cells is <10^2 CFU/ml.

**Q.** And the viable cells ([1]; 2.0 ppm active ingredient, contact time 90 min, Table 7)?
**A.** Its viable cells is <10^2 CFU/ml.

**Q.** Which results are given for `CC1(C)C(=O)N(Cl)C(=O)N1Br` [Compound A2, 1-bromo-3-chloro-5,5-dimethylhydantoin]?
**A.** Volume of Ammonia [2, 3]: 40 ppm; Volume of Hydrogen sulfide [2, 3]: 5.0 ppm; Volume of Methyl mercaptan [2, 3]: 10 ppm; Volume of Ammonia [2, 4]: 40 ppm; Volume of Hydrogen sulfide [2, 4]: 5.0 ppm; Volume of Methyl mercaptan [2, 4]: 10 ppm; Volume of Ammonia [2, 5]: 40 ppm; Volume of Hydrogen sulfide [2, 5]: 5.0 ppm; Volume of Methyl mercaptan [2, 5]: 10 ppm; Volume of Ammonia [2, 6]: 40 ppm; Volume of Hydrogen sulfide [2, 6]: 5.0 ppm; Volume of Methyl mercaptan [2, 6]: 10 ppm; Volume of Ammonia [2, 7]: 10 ppm; Volume of Hydrogen sulfide [2, 7]: 2.5 ppm; Volume of Methyl mercaptan [2, 7]: 0.5 ppm; Volume of Ammonia [2, 8]: 40 ppm; Volume of Hydrogen sulfide [2, 8]: 5.0 ppm; Volume of Methyl mercaptan [2, 8]: 10 ppm; Volume of Ammonia [2, 9]: 20 ppm; Volume of Hydrogen sulfide [2, 9]: 5.0 ppm; Volume of Methyl mercaptan [2, 9]: 5.0 ppm
